Columns and labels:
[1] = Selectivity index, ratio of CC50 for human MT4 cells to EC50 for HIV-1 harboring reverse transcriptase K103N/Y181C double mutant infected in human MT4 cells; format: toxicity, cell-based; conditions: read-out: Ratio CC50/EC50
[2] = Selectivity index, ratio of CC50 for human MT4 cells to EC50 for wild-type HIV-1 infected in human MT4 cells; format: toxicity, cell-based; conditions: uninfected and infected with wild-type HIV-1, read-out: Ratio CC50/EC50
[3] = Cytotoxicity against human MT4 cells; format: cell-based
[4] = test system: Human immunodeficiency virus 1; test: Antiviral activity against HIV-1 harboring reverse transcriptase K103N/Y181C double mutant infected in human MT4 cells; format: functional, organism-based; conditions: Human immunodeficiency virus 1, MT4
[5] = test system: Human immunodeficiency virus 1; test: Antiviral activity against wild-type HIV-1 infected in human MT4 cells; format: functional, organism-based; conditions: Human immunodeficiency virus 1, MT4
[6] = test system: Human immunodeficiency virus 1; test: Antiviral activity against HIV-1 3B infected in human MT4 cells assessed as cell viability after 5 days by MTT assay; format: functional, organism-based; conditions: Human immunodeficiency virus 1, 3B, MT4, 120 h

Compound | selectivity ratio [1] | selectivity ratio [2] | CC50 [3] [µM] | EC50 [4] [µM] | EC50 [5] [µM] | EC50 [6] [µM]
O=C(CSc1nnsc1-c1cccc2ccccc12)Nc1cccnc1Cl | 24 | 6440 | 121 | 5.11 | 0.019 | 
O=C(CSc1nnsc1-c1cccc2ccccc12)Nc1ccccc1Br | 5 | 3920 | 172 | 34.4 | 0.044 | 
O=C(CSc1sc(Cl)nc1-c1ccc(Br)cc1Br)Nc1ccccc1[N+](=O)[O-] |  |  |  |  |  | 2.09

From ChEMBL document CHEMBL3621063, “Discovery of potent HIV-1 non-nucleoside reverse transcriptase inhibitors from arylthioacetanilide structural motif” (Eur J Med Chem, 2015)
